Laboratory results as given in ChEMBL document CHEMBL4406843, “β-Amino acid derivatives as mitochondrial complex III inhibitors of L. donovani: A promising chemotype targeting visceral leishmaniasis” (Eur J Med Chem, 2019).
Activity calls are given as the source filed them. No cut-off for these calls is given here.

Legend:
Leishmania donovani [1] = assay: Antileishmanial activity against promastigote stage of Leishmania donovani MHOM/IN/80/Dd8 harboring luciferase reporter gene at 50 uM after 48 hrs by Steady-Glo luminescence assay relative to control; type: functional; conditions: for inhibition at 50 µM: MHOM/IN/80/Dd8, 48 h
Leishmania donovani [2] = assay: Antileishmanial activity against Leishmania donovani MHOM/IN/80/Dd8 amastigotes harboring luciferase reporter gene infected in mouse J774 cells at 25 uM after 72 hrs by Steady-Glo luminescence assay relative to control; type: functional; conditions: for inhibition at 25 µM: MHOM/IN/80/Dd8, J774, 72 h
Leishmania donovani [3] = assay: Antileishmanial activity against promastigote stage of Leishmania donovani MHOM/IN/80/Dd8 harboring luciferase reporter gene at 25 uM after 48 hrs by Steady-Glo luminescence assay relative to control; type: functional; conditions: for inhibition at 25 µM: MHOM/IN/80/Dd8, 48 h
Leishmania donovani [4] = assay: Antileishmanial activity against promastigote stage of Leishmania donovani MHOM/IN/80/Dd8 harboring luciferase reporter gene at 100 uM after 48 hrs by Steady-Glo luminescence assay relative to control; type: functional; conditions: MHOM/IN/80/Dd8, 48 h
[5] = Cytotoxicity against African green monkey Vero cells assessed as cell viability at 100 uM by MTT assay relative to control; type: cell-based; conditions: chlorocebus sabaeus, read-out: Activity
Leishmania donovani [6] = assay: Antileishmanial activity against Leishmania donovani MHOM/IN/80/Dd8 amastigotes harboring luciferase reporter gene infected in mouse J774 cells at 100 uM after 72 hrs by Steady-Glo luminescence assay relative to control; type: functional; conditions: MHOM/IN/80/Dd8, J774, 72 h
[7] = Cytotoxicity against African green monkey Vero cells assessed as cell viability at 50 uM by MTT assay relative to control; type: cell-based; conditions: chlorocebus sabaeus, read-out: Activity
[8] = Cytotoxicity against African green monkey Vero cells assessed as cell viability at 25 uM by MTT assay relative to control; type: cell-based; conditions: chlorocebus sabaeus, read-out: Activity
Leishmania donovani [9] = assay: Antileishmanial activity against Leishmania donovani MHOM/IN/80/Dd8 amastigotes harboring luciferase reporter gene infected in mouse J774 cells at 50 uM after 72 hrs by Steady-Glo luminescence assay relative to control; type: functional; conditions: MHOM/IN/80/Dd8, J774, 72 h
Leishmania donovani [10] = assay: Inhibition of ubiquinol cytochrome c reductase in Leishmania donovani promastigotes mitochondria at 2 uM using decylubiquinol as substrate in presence of cytochrome c relative to control
Leishmania donovani [11] = assay: Inhibition of succinate-ubiquinone oxidoreductase in Leishmania donovani promastigotes mitochondria using succinate as substrate in presence fo DCPIP by photometry analysis relative to control; conditions: concentration not given here
Leishmania donovani [12] = assay: Induction of mitochondrial dysfunction in Leishmania donovani promastigotes assessed as reduction in mitochondrial membrane potential at 50 uM after 15 mins by JC-1 staining-based flow cytometric analysis (reference value: 7.73%); type: functional; set-up: scale not given: the % may be the effect or the level left
[13] = Selectivity index, ratio of CC50 for mouse J774 cells to IC50 for antileishmanial activity against Leishmania donovani MHOM/IN/80/Dd8 amastigotes harboring luciferase reporter gene; type: toxicity; conditions: read-out: Ratio CC50/IC50
[14] = Selectivity index, ratio of CC50 for African green monkey Vero cells to IC50 for antileishmanial activity against Leishmania donovani MHOM/IN/80/Dd8 amastigotes harboring luciferase reporter gene; type: toxicity; conditions: read-out: Ratio CC50/IC50
[15] = Stability in mouse plasma at 10 ug/ml measured after 2 hrs by UPLC analysis relative to control; type: ADME, cell-free; conditions: read-out: Stability
[16] = Half life in mouse liver microsomes after 1 hr in presence of NADPH by UPLC analysis; type: ADME, Microsome
[17] = Stability in simulated intestinal fluid at 10 ug/ml measured after 2 hrs by UPLC analysis relative to control; type: ADME; conditions: read-out: Stability
[18] = Stability in simulated gastric fluid at 10 ug/ml measured after 2 hrs by UPLC analysis relative to control; type: ADME; conditions: read-out: Stability
[19] = Intrinsic clearance in mouse liver microsomes after 1 hr in presence of NADPH by UPLC analysis; type: ADME, Microsome
[20] = Stability in mouse liver microsomes assessed as compound remaining after 1 hr in presence of NADPH by UPLC analysis; type: ADME, Microsome; conditions: read-out: Stability

Row | SMILES | inhibition at 50 µM (Leishmania donovani [1]) [%] | inhibition at 25 µM (Leishmania donovani [2]) [%] | inhibition at 25 µM (Leishmania donovani [3]) [%] | inhibition at 100 µM (Leishmania donovani [4]) [%] | viability at 100 µM [5] [%] | inhibition at 100 µM (Leishmania donovani [6]) [%] | viability at 50 µM [7] [%] | viability at 25 µM [8] [%] | inhibition at 50 µM (Leishmania donovani [9]) [%] | further results
1 | CCOC(=O)C(C(=O)c1ccc(OC)cc1)C(NC(C)=O)c1ccc(C(C)(C)C)cc1 (stereo not given) | 52.4 | 40.5 | 40.2 | 54.3 | 89.5 | 53.1 | 92.3 | 94.5 | 46.1 | –
2 | CCCCCCC1C(=O)O[C@H](C)[C@H](NC(=O)c2cccc(NC=O)c2O)C(=O)O[C@@H](C)[C@@H]1OC(=O)CC(C)C (stereo not given in full) | – | – | – | – | – | – | – | – | – | inhibition (Leishmania donovani [10]): > 93%
3 | CCOC(=O)C(C(=O)c1ccc(OC)cc1)C(NC(C)=O)c1ccc(C(C)C)cc1 (stereo not given) | 33.5 | 29.4 | 30.8 | 34 | 90.4 | 55.3 | 96.5 | 98.8 | 44.4 | –
4 | CSc1ccc(C(=O)C(c2ccc(Cl)c(Cl)c2)C(NC(=O)c2ccccc2)c2cccc3ccccc23)cc1 (stereo not given) | 42.1 | 43.1 | 33.4 | 45.6 | 89.2 | 72.3 | 93.9 | 98.2 | 69.4 | –
5 | CSc1ccc(C(=O)C(c2ccc(Cl)c(Cl)c2)C(NC(C)=O)c2cccc3ccccc23)cc1 (stereo not given) | 74.3 | 25 | 55.8 | 78.6 | 87.2 | 36.4 | 89.3 | 90.1 | 31.5 | –
6 | CSc1ccc(C(=O)C(c2ccc(Cl)c(Cl)c2)C(NC(=O)c2ccccc2)c2cc3ccccc3s2)cc1 (stereo not given) | 30.5 | 11.8 | 22.4 | 33.2 | 88 | 18.3 | 92.4 | 97.2 | 16.5 | –
7 | CSc1ccc(C(=O)C(c2ccc(Cl)c(Cl)c2)C(NC(=O)c2ccc(C)cc2)c2cc3ccccc3s2)cc1 (stereo not given) | 22.4 | 9.2 | 20.1 | 24.2 | 90.2 | 21 | 92.3 | 95.3 | 17.6 | –
8 | CSc1ccc(C(=O)C(c2ccc(Cl)c(Cl)c2)C(NC(=O)c2ccc(C)cc2)c2cccc3ccccc23)cc1 (stereo not given) | – | 14.3 | – | 12.5 | 88.6 | 25.9 | 89.6 | 90.5 | 23.8 | inhibition (Leishmania donovani [1]): inactive; inhibition (Leishmania donovani [3]): inactive
9 | CSc1ccc(C(=O)C(c2ccc(Cl)c(Cl)c2)C(NC(=O)c2ccc(Br)cc2)c2cccc3ccccc23)cc1 (stereo not given) | 74.9 | 21.2 | 56.3 | 77.2 | 88.5 | 39.2 | 90.2 | 92.8 | 38.3 | –
10 | CSc1ccc(C(=O)/C(=C/c2cccnc2)c2ccc(Cl)c(Cl)c2)cc1 | 80.4 | 34.3 | 46.7 | 83.2 | 88.6 | 62.1 | 89.6 | 95.7 | 59.3 | –
11 | O=C(CC(=O)C(F)(F)F)c1ccco1 | – | – | – | – | – | – | – | – | – | inhibition (Leishmania donovani [11]): > 84%
12 | N#CC(C#N)=NNc1cccc(Cl)c1 [CARBONYL CYANIDE M-CHLOROPHENYLHYDRAZONE] | – | – | – | – | – | – | – | – | – | Activity (Leishmania donovani [12]): 94.26%
13 | CSc1ccc(C(=O)C(c2ccc(Cl)c(Cl)c2)C(NC(=O)c2cccc(C)c2)c2cc3ccccc3s2)cc1 (stereo not given) | 30.4 | 12 | 24.3 | 35.1 | 87.3 | 27.2 | 90.6 | 92.1 | 21.9 | –
14 | CSc1ccc(C(=O)/C(=C/c2ccccn2)c2ccc(Cl)c(Cl)c2)cc1 | 74.6 | 17.5 | 53.4 | 76.6 | 89.6 | 38.5 | 93.6 | 97.9 | 36.2 | –
15 | CCCCCCCCCCCCCCCCOP(=O)([O-])OCC[N+](C)(C)C [MILTEFOSINE] | – | – | – | – | – | – | – | – | – | selectivity ratio [13]: 5.8; selectivity ratio [14]: 5.3
16 | CSc1ccc(C(=O)/C(=C/c2cc3ccccc3s2)c2ccc(Cl)c(Cl)c2)cc1 | 70.3 | – | 62.1 | 72.1 | 87 | 2.8 | 91.6 | 93.4 | 2.6 | inhibition (Leishmania donovani [2]): inactive
17 | CCOC(=O)C(C(=O)c1ccc(OC)cc1)C(NC(C)=O)c1ccc(OC)c(OC)c1 (stereo not given) | 35 | 57.1 | 30.2 | 35.8 | 88.5 | 59.2 | 96.7 | 99.1 | 58.1 | –
18 | CCOC(=O)C(C(=O)c1ccc(OC)cc1)C(NC(C)=O)c1cc(OC)ccc1Br (stereo not given) | 80.3 | 58.2 | 68 | 81.2 | 90.7 | 64.2 | 93.3 | 96.3 | 62.3 | remaining at 2 h, 10 ug/ml [15]: 6.97%; half-life [16]: 1.55 h; remaining at 2 h, 10 ug/ml [17]: 69.6%; remaining at 2 h, 10 ug/ml [18]: 71.1%; CLH [19]: 5 µL/min/mg; remaining at 1 h [20]: 57.8%
19 | CSc1ccc(C(=O)C(c2ccc(Cl)c(Cl)c2)C(NC(=O)c2cccc(C)c2)c2cccc3ccccc23)cc1 (stereo not given) | 36.4 | 5.9 | 27.2 | 36.9 | 87.6 | 19.3 | 90.7 | 95.8 | 14.5 | –
20 | CCOC(=O)C(C(=O)c1ccc(OC)cc1)C(NC(C)=O)c1cc(OC)c(OC)c(OC)c1 (stereo not given) | 40.2 | 25.4 | 28.3 | 43.1 | 88.9 | 51.3 | 94.3 | 97.8 | 51.1 | –
